Results published in patent US8247211B2, “Glycopeptide antibiotics” (American Cyanamid Company, priority 2001, dated 2012).
Converted amounts (≈) assume the structure as drawn. Blank lines part the entries; values can stand above or below the compound they belong to.

What was measured:
Assay in all cases: In vitro antibacterial evaluation: minimum inhibitory concentration (MIC), broth dilution method
Format in all cases: cell-based
Enterococcus sp. = conditions: 18 hours at 35° C.
Method in brief: (§1)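 Susceptibility determined by NCCLS-recommended broth dilution (M7-A2), Muller-Hinton II […]. Concentration span 64-0.06 μg/mL, inoculum 5×10^5 CFU/mL. Isolates include strains resistant to methicillin, penicillin and/or vancomycin.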

Escherichia coli = conditions: 18 hours at 35° C.
Method in brief: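 MIC read as lowest drug level preventing visible growth. Organisms at 5×10^5 CFU/mL were exposed to a 64-0.06 μg/mL dilution series in Muller-Hinton II […] following NCCLS broth dilution standard M7-A2.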

Staphylococcus sp. = conditions: for MIC Staphylococcus aureus (ATCC 29213): strain ATCC 29213; for MIC Staphylococcus aureus (GC 1131): strain GC 1131; for MIC Staphylococcus aureus (GC 4541): strain GC 4541; for MIC Staphylococcus aureus-SMITH (GC 4543): strain GC 4543; for MIC Coagulase Negative Staphylococcus (GC 4547): strain GC 4547; for MIC Coagulase Negative Staphylococcus (GC 4548): strain GC 4548; for MIC Coagulase Negative Staphylococcus (GC 4549): strain GC 4549; for MIC Coagulase Negative Staphylococcus (GC 6257): strain GC 6257
Method in brief: as §1

Streptococcus sp. = conditions: 18 hours at 35° C.
Method in brief: as §1

[1] = Enterococcus faecalis (ATCC 29212)
[2] = Enterococcus faecalis (GC 2242)
[3] = Enterococcus faecalis (GC 6189)
[4] = broth dilution, inoculum 5×10^5 CFU/mL
[5] = Streptococcus pneumoniae (ATCC 6301)
[6] = Streptococcus pneumoniae (GC 1894)

- MIC Enterococcus avium (GC 4558) (Enterococcus sp.; Enterococcus avium (GC 4558)): 4 µg/mL (≈ 2.74 µM)
- MIC Enterococcus faecalis (ATCC 29212) (Enterococcus sp.; [1]): 4 µg/mL (≈ 2.74 µM)
- MIC Enterococcus faecalis (GC 2242) (Enterococcus sp.; [2]): 4 µg/mL (≈ 2.74 µM)
- MIC Enterococcus faecalis (GC 6189) (Enterococcus sp.; [3]): 1 µg/mL (≈ 0.685 µM)
- MIC Enterococcus faecium (GC 2243) (Enterococcus sp.; Enterococcus faecium (GC 2243)): 1 µg/mL (≈ 0.685 µM)
- MIC Enterococcus faecium (GC 4556) (Enterococcus sp.; Enterococcus faecium (GC 4556)): 4 µg/mL (≈ 2.74 µM)
- MIC Enterococcus avium (GC 4558) (Enterococcus sp.; [4]): 4 µg/mL (≈ 2.74 µM)
- MIC Enterococcus faecalis (ATCC 29212) (Enterococcus sp.; [4]): 4 µg/mL (≈ 2.74 µM)
- MIC Enterococcus faecalis (GC 2242) (Enterococcus sp.; [4]): 4 µg/mL (≈ 2.74 µM)
- MIC Enterococcus faecalis (GC 6189) (Enterococcus sp.; [4]): 1 µg/mL (≈ 0.685 µM)
- MIC Enterococcus faecium (GC 2243) (Enterococcus sp.; [4]): 1 µg/mL (≈ 0.685 µM)
- MIC Enterococcus faecium (GC 4556) (Enterococcus sp.; [4]): 4 µg/mL (≈ 2.74 µM)
- MIC Escherichia coli (ATCC 25922) (Escherichia coli): 64 µg/mL (≈ 43.8 µM)
- MIC Escherichia coli (GC 4559) (Escherichia coli): >64 µg/mL
- MIC Escherichia coli (GC 4560) (Escherichia coli): 4 µg/mL (≈ 2.74 µM)
- MIC Staphylococcus aureus (ATCC 29213) (Staphylococcus sp.): 4 µg/mL (≈ 2.74 µM)
- MIC Staphylococcus aureus (GC 1131) (Staphylococcus sp.): 2 µg/mL (≈ 1.37 µM)
- MIC Staphylococcus aureus (GC 4541) (Staphylococcus sp.): 2 µg/mL (≈ 1.37 µM)
- MIC Staphylococcus aureus-SMITH (GC 4543) (Staphylococcus sp.): 1 µg/mL (≈ 0.685 µM)
- MIC Coagulase Negative Staphylococcus (GC 4547) (Staphylococcus sp.): 4 µg/mL (≈ 2.74 µM)
- MIC Coagulase Negative Staphylococcus (GC 4548) (Staphylococcus sp.): 1 µg/mL (≈ 0.685 µM)
- MIC Coagulase Negative Staphylococcus (GC 4549) (Staphylococcus sp.): 1 µg/mL (≈ 0.685 µM)
- MIC Coagulase Negative Staphylococcus (GC 6257) (Staphylococcus sp.): 2 µg/mL (≈ 1.37 µM)
- MIC Streptococcus pneumoniae (ATCC 6301) (Streptococcus sp.; [5]): <0.06 µg/mL
- MIC Streptococcus pneumoniae (GC 1894) (Streptococcus sp.; [6]): <0.06 µg/mL
- MIC Streptococcus pneumoniae (ATCC 6301) (Streptococcus sp.; [4]): <0.06 µg/mL
- MIC Streptococcus pneumoniae (GC 1894) (Streptococcus sp.; [4]): <0.06 µg/mL
SMILES: CC(c1ccccc1)C1NC(=O)CNC(=O)C(CO)NC(=O)C(C(O)C2CNC(=N)N2C2OC(CO)C(O)C(O)C2O)NC(=O)C(C(O)C2CNC(=N)N2)NC(=O)C(Cc2ccc(OC3OC(CO)C(OC4OC5COC6(CCCCCCCCCCC6)OC5C(O)C4O)C(O)C3O)cc2)NC1=O (stereo not drawn) [Example 209, Cyclo[glycyl-β-methylphenylalanyl-O-[4-O-(4,6-O-cyclododecylidenehexopyranosyl)-hexopyranosyl]tyrosyl-3-(2-iminoimidazolidin-4-yl)seryl-3-(3-hexopyranosyl-2-iminoimidazolidin-4-yl)serylseryl]]

- MIC Enterococcus avium (GC 4558) (Enterococcus sp.; Enterococcus avium (GC 4558)): 16 µg/mL (≈ 10.9 µM)
- MIC Enterococcus faecalis (ATCC 29212) (Enterococcus sp.; [1]): 32 µg/mL (≈ 21.7 µM)
- MIC Enterococcus faecalis (GC 2242) (Enterococcus sp.; [2]): 16 µg/mL (≈ 10.9 µM)
- MIC Enterococcus faecalis (GC 2691) (Enterococcus sp.; Enterococcus faecalis (GC 2691)): 8 µg/mL (≈ 5.43 µM)
- MIC Enterococcus faecalis (GC 3059) (Enterococcus sp.; Enterococcus faecalis (GC 3059)): 32 µg/mL (≈ 21.7 µM)
- MIC Enterococcus faecalis (GC 4552) (Enterococcus sp.; Enterococcus faecalis (GC 4552)): 32 µg/mL (≈ 21.7 µM)
- MIC Enterococcus faecalis (GC 4553) (Enterococcus sp.; Enterococcus faecalis (GC 4553)): 16 µg/mL (≈ 10.9 µM)
- MIC Enterococcus faecalis (GC 4554) (Enterococcus sp.; Enterococcus faecalis (GC 4554)): 32 µg/mL (≈ 21.7 µM)
- MIC Enterococcus faecalis (GC 6189) (Enterococcus sp.; [3]): 16 µg/mL (≈ 10.9 µM)
- MIC Enterococcus faecium (GC 2243) (Enterococcus sp.; Enterococcus faecium (GC 2243)): 32 µg/mL (≈ 21.7 µM)
- MIC Enterococcus faecium (GC 4556) (Enterococcus sp.; Enterococcus faecium (GC 4556)): 32 µg/mL (≈ 21.7 µM)
- MIC Enterococcus faecium (GC 4557) (Enterococcus sp.; Enterococcus faecium (GC 4557)): 32 µg/mL (≈ 21.7 µM)
- MIC Enterococcus avium (GC 4558) (Enterococcus sp.; [4]): 16 µg/mL (≈ 10.9 µM)
- MIC Enterococcus faecalis (ATCC 29212) (Enterococcus sp.; [4]): 32 µg/mL (≈ 21.7 µM)
- MIC Enterococcus faecalis (GC 2242) (Enterococcus sp.; [4]): 16 µg/mL (≈ 10.9 µM)
- MIC Enterococcus faecalis (GC 2691) (Enterococcus sp.; [4]): 8 µg/mL (≈ 5.43 µM)
- MIC Enterococcus faecalis (GC 3059) (Enterococcus sp.; [4]): 32 µg/mL (≈ 21.7 µM)
- MIC Enterococcus faecalis (GC 4552) (Enterococcus sp.; [4]): 32 µg/mL (≈ 21.7 µM)
- MIC Enterococcus faecalis (GC 4553) (Enterococcus sp.; [4]): 16 µg/mL (≈ 10.9 µM)
- MIC Enterococcus faecalis (GC 4554) (Enterococcus sp.; [4]): 32 µg/mL (≈ 21.7 µM)
- MIC Enterococcus faecalis (GC 6189) (Enterococcus sp.; [4]): 16 µg/mL (≈ 10.9 µM)
- MIC Enterococcus faecium (GC 2243) (Enterococcus sp.; [4]): 32 µg/mL (≈ 21.7 µM)
- MIC Enterococcus faecium (GC 4556) (Enterococcus sp.; [4]): 32 µg/mL (≈ 21.7 µM)
- MIC Enterococcus faecium (GC 4557) (Enterococcus sp.; [4]): 32 µg/mL (≈ 21.7 µM)
- MIC Escherichia coli (ATCC 25922) (Escherichia coli): >64 µg/mL
- MIC Escherichia coli (GC 4559) (Escherichia coli): >64 µg/mL
- MIC Escherichia coli (GC 4560) (Escherichia coli): 64 µg/mL (≈ 43.4 µM)
- MIC Staphylococcus aureus (ATCC 29213) (Staphylococcus sp.): 32 µg/mL (≈ 21.7 µM)
- MIC Staphylococcus aureus (GC 1131) (Staphylococcus sp.): 32 µg/mL (≈ 21.7 µM)
- MIC Staphylococcus aureus (GC 3051) (Staphylococcus sp.; strain GC 3051): 32 µg/mL (≈ 21.7 µM)
- MIC Staphylococcus aureus (GC 3053) (Staphylococcus sp.; strain GC 3053): 32 µg/mL (≈ 21.7 µM)
- MIC Staphylococcus aureus (GC 4541) (Staphylococcus sp.): 32 µg/mL (≈ 21.7 µM)
- MIC Staphylococcus aureus (GC 4542) (Staphylococcus sp.; strain GC 4542): 32 µg/mL (≈ 21.7 µM)
- MIC Staphylococcus aureus-SMITH (GC 4543) (Staphylococcus sp.): 32 µg/mL (≈ 21.7 µM)
- MIC Staphylococcus aureus (GC 4544) (Staphylococcus sp.; strain GC 4544): 32 µg/mL (≈ 21.7 µM)
- MIC Staphylococcus aureus (GC 4545) (Staphylococcus sp.; strain GC 4545): 32 µg/mL (≈ 21.7 µM)
- MIC Coagulase Negative Staphylococcus (GC 4547) (Staphylococcus sp.): 32 µg/mL (≈ 21.7 µM)
- MIC Coagulase Negative Staphylococcus (GC 4548) (Staphylococcus sp.): 32 µg/mL (≈ 21.7 µM)
- MIC Coagulase Negative Staphylococcus (GC 4549) (Staphylococcus sp.): 8 µg/mL (≈ 5.43 µM)
- MIC Coagulase Negative Staphylococcus (GC 4551) (Staphylococcus sp.; strain GC 4551): 32 µg/mL (≈ 21.7 µM)
- MIC Coagulase Negative Staphylococcus (GC 6257) (Staphylococcus sp.): 32 µg/mL (≈ 21.7 µM)
- MIC Streptococcus agalactiae (GC 4564) (Streptococcus sp.; Streptococcus agalactiae (GC 4564)): 0.25 µg/mL (≈ 0.17 µM)
- MIC Streptococcus pneumoniae (ATCC 6301) (Streptococcus sp.; [5]): 0.25 µg/mL (≈ 0.17 µM)
- MIC Streptococcus pneumoniae (GC 1894) (Streptococcus sp.; [6]): <0.06 µg/mL
- MIC Streptococcus pneumoniae (GC 4565) (Streptococcus sp.; Streptococcus pneumoniae (GC 4565)): <0.06 µg/mL
- MIC Streptococcus pyogenes (GC 4563) (Streptococcus sp.; Streptococcus pyogenes (GC 4563)): 2 µg/mL (≈ 1.36 µM)
- MIC Streptococcus agalactiae (GC 4564) (Streptococcus sp.; [4]): 0.25 µg/mL (≈ 0.17 µM)
- MIC Streptococcus pneumoniae (ATCC 6301) (Streptococcus sp.; [4]): 0.25 µg/mL (≈ 0.17 µM)
- MIC Streptococcus pneumoniae (GC 1894) (Streptococcus sp.; [4]): <0.06 µg/mL
- MIC Streptococcus pneumoniae (GC 4565) (Streptococcus sp.; [4]): <0.06 µg/mL
- MIC Streptococcus pyogenes (GC 4563) (Streptococcus sp.; [4]): 2 µg/mL (≈ 1.36 µM)
SMILES: CC(c1ccccc1)C1NC(=O)CNC(=O)C(CO)NC(=O)C(C(O)C2CNC(=N)N2C2OC(CO)C(O)C(O)C2O)NC(=O)C(C(O)C2CNC(=N)N2)NC(=O)C(Cc2ccc(OC3OC(CO)C(OC4OC5COC6(CCCCCCCCCCCC6)OC5C(O)C4O)C(O)C3O)cc2)NC1=O (stereo not shown) [Example 210]
- MIC Staphylococcus haemolyticus (GC 4546) (Staphylococcus sp.; strain GC 4546): 32 µg/mL (≈ 21.7 µM)
